# Test results published in publication PMC9959130, “Effects of Side Chain and Peptide Bond Modifications on the Targeting Properties of Stabilized Minigastrin Analogs” (Pharmaceuticals, 2023).
# Where a SMILES comes first, the peptide text is derived from it. [ ]: non-standard residue; d: D form. The star is where a group is joined. DOTA = O=C(O)CN1CCN(CC(=O)O)CCN(CC(=O)*)CCN(CC(=O)O)CC1; 1Nal = N[C@@H](Cc1cccc2ccccc12)C(=O)O; NMeNle = CCCC[C@H](NC)C(=O)O
# Assays:
# human CCK2R = molecular target: T1, human CCK2R (Homo sapiens, UniProt P32239); assay: Calcium mobilization assay (fluo-4 AM) on A431-CCK2R cells; type: cell-based; settings: normalized to 10^−6 M pentagastrin, mean ± SEM of at least three independent experiments in triplicates
# T1 construct: expressed in transfected cells; host or cells: A431 human epidermoid carcinoma cells, stably transfected (A431-CCK2R); originally provided by Dr. Luigi Aloj
# T1 sequence (P32239 1-447): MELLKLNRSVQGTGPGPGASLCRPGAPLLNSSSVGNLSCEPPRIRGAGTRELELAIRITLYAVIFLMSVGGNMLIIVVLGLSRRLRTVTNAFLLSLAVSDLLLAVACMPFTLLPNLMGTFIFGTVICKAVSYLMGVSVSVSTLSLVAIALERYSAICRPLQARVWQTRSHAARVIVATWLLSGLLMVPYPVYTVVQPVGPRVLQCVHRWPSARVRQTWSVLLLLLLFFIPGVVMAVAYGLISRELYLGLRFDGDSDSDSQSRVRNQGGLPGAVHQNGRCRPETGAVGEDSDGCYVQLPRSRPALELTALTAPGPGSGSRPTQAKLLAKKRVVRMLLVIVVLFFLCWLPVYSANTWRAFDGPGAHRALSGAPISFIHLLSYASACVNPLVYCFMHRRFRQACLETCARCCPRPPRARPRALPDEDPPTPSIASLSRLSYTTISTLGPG
# Source text: A431 human epidermoid carcinoma cells overexpressing human CCK2R through stable transfection (A431-CCK2R) and the same cell line transfected with the empty vector (A431-mock) were used for cell assays. The cells are constantly available in our laboratory and were originally provided by Dr. Luigi Aloj. All cell culture media and reagents were obtained from Invitrogen Corporation (Lofer, Austria) or Sigma-Aldrich (Darmstadt, Germany). Dulbecco’s modified Eagle’s medium (DMEM) supplemented with 10% (v/v) fetal bovine serum and 1% of 100x penicillin−streptomycin−glutamine was used for cell culture. The cells were passaged three times per week using a 10x 2.5% trypsin-EDTA solution in a 1:2–1:3 ratio.
# Analog-induced receptor activation was evaluated by a calcium mobilization assay using the calcium-sensitive dye fluo-4 AM (ThermoFisher Scientific, Montigny-Le-Bretonneux, France), as previously described. Briefly, A431-CCK2R cells were seeded (60,000/well) in flat clear bottom black 96-well plates (Corning, Bagneaux-sur-Loing, France) coated with poly-L-ornithine (100 µg/mL, 1 h, 37 °C) (Sigma Aldrich, Saint Quentin Fallavier, France). Cytosolic Ca^2+ variations were measured before and after application of 50 µL of graded concentrations of the investigated peptides in the vicinity of the cells, and the effects on Ca^2+ mobilization were measured. Data were background corrected and normalized for the amplitudes caused by the medium alone (0%, no self-effect) or 10^−6 M pentagastrin (100%, maximal Ca^2+ mobilization response). Prism 4.0 software was used to calculate the EC50 values and the results were expressed as mean ± SEM for at least three independent experiments performed in triplicates.
# [1] = cited from earlier work
# Protocol: (−2.33 ± 0.23) > [^111In]In-DOTA-MGS5 (−2.0 ± 0.1) > [^111In]In-DOTA-[2Nal^8]MGS5 (−1.71 ± 0.19) > [^111In]In-DOTA-[DLys^1]MGS5 (−1.31 ± 0.11). […] For the time point of 24 h after incubation, lowest values were found for [^111In] ...
# [2] = Metabolic studies in BALB/c mice (intact radiopeptide by radio-HPLC); type: in vivo; settings: i.v., 2 nmol, 10 min p.i., two animals per peptide
# Protocol: All animal experiments were approved by the Austrian Ministry of Science (BMWF-66.011/0075- WF/V/3b/2016) and performed in accordance with the Austrian Animal Protection Act. Metabolic studies characterizing the stability of selected radioligands against enzymatic degradation were carried out in 7 to 8 week old female BALB/c mice (Charles River, Sulzfeld, Germany). The mice (two animals for each peptide) were intravenously injected into a lateral tail vein with 5–10 MBq of the ^111In-labeled peptide derivatives, corresponding to 2 nmol total peptide. At the time point of 10 min p.i. the animals were euthanatized by cervical dislocation. A sample of urine and blood was immediately collected. Liver and kidneys were dissected, mixed with 20 mM HEPES buffer pH 7.3 (1:1, w/v) and homogenized using an Ultra-Turrax T8 homogenizer (IKA-Werke, Staufen, Germany) for 1 min. All samples taken were analyzed by analytical HPLC using the low-sensitivity loop for urine and the high-sensitivity loop for blood, liver and kidney. Before injection into the HPLC system, all samples except urine were treated with ACN and diluted with water as described for stability studies in human serum. The percentage of intact radiopeptide in the analyzed samples was calculated by integration of the different peaks found in the radiochromatogram using Chromeleon Dionex Software (Version 7.2.9.11323).
# [3] = system: A431-CCK2R and A431-mock xenografts; assay: Biodistribution in BALB/c nude mice bearing A431-CCK2R/A431-mock xenografts; type: in vivo; settings: xenografted BALB/c nude mice, i.v., ~20 pmol, 4 h p.i. (indium-111 or lutetium-177), mean ± SD n = 4
# Method in brief: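 Female athymic BALB/c nude mice carrying subcutaneous A431-CCK2R and A431-mock tumors (~0.25 g) received ~20 pmol radiopeptide i.v. (150–200 kBq; ~0.5 MBq for gallium-68/lutetium-177 studies), n = 4. Tissues γ-counted at 1 h (gallium-68) or 4 h p.i. (indium-111/lutetium-177); expressed as % IA/g and tumor-to-organ ratios.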
SMILES,EC50 (human CCK2R) [nM],LogD [1],Intact radiopeptide in kidney ([2]; kidney homogenate) [%],Intact radiopeptide in liver ([2]; liver homogenate) [%],Intact radiopeptide in blood [2] [%],Intact radiopeptide in urine [2] [%],Uptake in kidneys [3] [%IA/g]
"CCCC[C@@H](C(=O)N[C@@H](CC(=O)O)C(=O)N[C@@H](Cc1cccc2ccccc12)C(N)=O)N(C)C(=O)[C@H](Cc1c[nH]c2ccccc12)NC(=O)CNC(=O)[C@H](Cc1ccc(O)cc1)NC(=O)[C@H](C)NC(=O)[C@@H](CCC(=O)O)NC(=O)CN1CCN(CC(=O)O)CCN(CC(=O)O)CCN(CC(=O)O)CC1 [DOTA-MGS5, DOTA-DGlu-Ala-Tyr-Gly-Trp-(N-Me)Nle-Asp-1Nal-NH2, reference compound]",7.9 ± 1.9,−2.0 ± 0.1,–,–,–,–,–
CCCC[C@@H](C(=O)N[C@@H](CC(=O)O)C(=O)N[C@@H](Cc1cccc2ccccc12)C(N)=O)N(C)C(=O)[C@H](Cc1c[nH]c2ccccc12)NC(=O)CNC(=O)[C@H](Cc1ccc(O)cc1)NC(=O)[C@H](C)NC(=O)[C@@H](CCCCN)NC(=O)CN1CCN(CC(=O)O)CCN(CC(=O)O)CCN(CC(=O)O)CC1 [[^111In]In-DOTA-[DLys^1]MGS5] [metal not drawn] ({DOTA}-[dK]AYGW[NMeNle]D[1Nal]-NH2),–,–,20.6 ± 3.8,82.5 ± 2.4,93.9 ± 1.2,5.8 ± 0.2,20.67 ± 4.37
